Where two headings read alike, the source gives them in different places.
Experiments:
Experiment in all cases: Kinase panel profiling at 1 µmol/L (MSA or IMAP), percentage inhibition
Format in all cases: biochemical
[1] = target: panel of 255 wild-type kinases (Homo sapiens, UniProt P23458); settings: read-out: %-inhibition at 1 µmol/L, JAK1
[2] = target: panel of 255 wild-type kinases (Homo sapiens, UniProt Q8IU85); settings: read-out: %-inhibition CaMK1δ
[3] = target: T1, panel of 255 wild-type kinases (Homo sapiens, UniProt O94806); settings: read-out: %-inhibition at 1 µmol/L, PKD3
T1 sequence (O94806 1-890): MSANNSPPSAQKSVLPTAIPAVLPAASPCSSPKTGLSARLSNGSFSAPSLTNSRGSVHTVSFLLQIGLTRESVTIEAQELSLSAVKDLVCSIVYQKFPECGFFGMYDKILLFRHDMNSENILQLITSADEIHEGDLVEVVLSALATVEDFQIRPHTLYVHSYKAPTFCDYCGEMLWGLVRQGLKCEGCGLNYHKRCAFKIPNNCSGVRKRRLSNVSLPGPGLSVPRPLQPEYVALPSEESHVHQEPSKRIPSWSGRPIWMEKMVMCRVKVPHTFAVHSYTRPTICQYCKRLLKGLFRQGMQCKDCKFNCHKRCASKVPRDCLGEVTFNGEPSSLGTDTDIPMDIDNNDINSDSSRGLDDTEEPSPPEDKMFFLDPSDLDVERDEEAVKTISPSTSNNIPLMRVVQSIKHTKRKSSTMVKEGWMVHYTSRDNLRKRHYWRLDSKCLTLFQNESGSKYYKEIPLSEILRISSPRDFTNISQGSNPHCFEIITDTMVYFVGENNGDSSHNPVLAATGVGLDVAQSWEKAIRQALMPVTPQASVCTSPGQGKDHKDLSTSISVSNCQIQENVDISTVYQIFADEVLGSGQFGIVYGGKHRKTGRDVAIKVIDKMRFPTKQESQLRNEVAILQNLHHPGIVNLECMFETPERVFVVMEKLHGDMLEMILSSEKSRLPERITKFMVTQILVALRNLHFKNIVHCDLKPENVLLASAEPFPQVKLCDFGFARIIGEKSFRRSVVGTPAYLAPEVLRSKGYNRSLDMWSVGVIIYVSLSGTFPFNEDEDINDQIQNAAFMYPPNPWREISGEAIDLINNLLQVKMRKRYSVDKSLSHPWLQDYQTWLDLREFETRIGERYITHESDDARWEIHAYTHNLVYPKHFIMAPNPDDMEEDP

[4] = target: panel of 255 wild-type kinases (Homo sapiens, UniProt P09769); settings: read-out: %-inhibition at 1 µmol/L, FGR
[5] = target: T2, panel of 255 wild-type kinases (Homo sapiens, UniProt Q96KB5); settings: read-out: %-inhibition at 1 µmol/L, PBK
T2 sequence (Q96KB5 1-322): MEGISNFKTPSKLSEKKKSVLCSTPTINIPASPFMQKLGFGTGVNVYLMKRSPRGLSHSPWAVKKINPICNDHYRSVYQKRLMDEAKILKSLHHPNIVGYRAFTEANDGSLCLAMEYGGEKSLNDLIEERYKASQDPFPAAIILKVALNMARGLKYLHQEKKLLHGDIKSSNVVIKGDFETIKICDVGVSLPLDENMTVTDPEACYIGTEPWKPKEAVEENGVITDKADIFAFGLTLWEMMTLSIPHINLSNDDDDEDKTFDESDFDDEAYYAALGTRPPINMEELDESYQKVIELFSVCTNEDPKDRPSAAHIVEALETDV

[6] = target: T3, panel of 255 wild-type kinases (Homo sapiens, UniProt Q9NRM7); settings: read-out: %-inhibition at 1 µmol/L, LATS2
T3 sequence (Q9NRM7 1-1088): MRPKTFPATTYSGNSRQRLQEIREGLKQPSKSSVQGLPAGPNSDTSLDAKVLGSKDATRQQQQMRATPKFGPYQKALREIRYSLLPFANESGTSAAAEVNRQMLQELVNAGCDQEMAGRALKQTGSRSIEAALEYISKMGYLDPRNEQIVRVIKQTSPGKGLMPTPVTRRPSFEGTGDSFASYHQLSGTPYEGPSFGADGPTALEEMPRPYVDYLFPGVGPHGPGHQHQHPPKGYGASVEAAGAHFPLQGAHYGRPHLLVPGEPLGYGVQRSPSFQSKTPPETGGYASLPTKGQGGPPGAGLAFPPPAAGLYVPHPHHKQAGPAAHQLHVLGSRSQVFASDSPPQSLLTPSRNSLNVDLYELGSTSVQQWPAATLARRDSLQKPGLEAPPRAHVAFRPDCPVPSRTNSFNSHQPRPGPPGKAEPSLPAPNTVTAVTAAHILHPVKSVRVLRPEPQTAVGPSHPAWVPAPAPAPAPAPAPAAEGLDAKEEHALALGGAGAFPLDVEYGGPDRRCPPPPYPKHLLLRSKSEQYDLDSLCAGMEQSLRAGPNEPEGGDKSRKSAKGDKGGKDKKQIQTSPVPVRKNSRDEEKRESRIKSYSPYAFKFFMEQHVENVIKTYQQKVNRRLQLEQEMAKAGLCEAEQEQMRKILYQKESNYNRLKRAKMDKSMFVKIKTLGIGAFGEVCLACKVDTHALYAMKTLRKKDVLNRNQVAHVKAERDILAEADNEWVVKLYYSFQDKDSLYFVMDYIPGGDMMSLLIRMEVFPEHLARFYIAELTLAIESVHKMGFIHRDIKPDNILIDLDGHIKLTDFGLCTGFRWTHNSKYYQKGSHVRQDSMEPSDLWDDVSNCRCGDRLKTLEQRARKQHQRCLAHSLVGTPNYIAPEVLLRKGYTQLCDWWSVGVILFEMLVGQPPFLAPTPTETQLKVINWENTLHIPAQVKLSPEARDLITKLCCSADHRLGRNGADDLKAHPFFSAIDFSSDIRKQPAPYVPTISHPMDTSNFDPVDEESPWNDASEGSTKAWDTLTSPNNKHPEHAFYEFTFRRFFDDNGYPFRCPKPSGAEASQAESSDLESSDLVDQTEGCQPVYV

[7] = target: panel of 255 wild-type kinases (Homo sapiens, UniProt Q9H1R3); settings: read-out: %-inhibition at 1 µmol/L, skMLCK
[8] = kinase JAK1, 1 µmol/L single concentration
[9] = CaMK1δ kinase assay, 1 µmol/L single concentration
[10] = kinase PKD3, 1 µmol/L single concentration
[11] = kinase FGR, 1 µmol/L single concentration
[12] = kinase PBK, 1 µmol/L single concentration
[13] = kinase LATS2, 1 µmol/L single concentration
[14] = kinase skMLCK, 1 µmol/L single concentration

SMILES	inhibition at 1 µM [1, 8] [%]	inhibition at 1 µM [2, 9] [%]	inhibition at 1 µM [3, 10] [%]	inhibition at 1 µM [4, 11] [%]	inhibition at 1 µM [5, 12] [%]	inhibition at 1 µM [6, 13] [%]	inhibition at 1 µM [7, 14] [%]	inhibition at 1 µM [1] [%]	inhibition at 1 µM [2] [%]	inhibition at 1 µM [3] [%]	inhibition at 1 µM [4] [%]	inhibition at 1 µM [5] [%]	inhibition at 1 µM [6] [%]	inhibition at 1 µM [7] [%]
Cn1cnc2c(F)c(Nc3ccc(Br)cc3Cl)c(C(=O)NOCCO)cc21 [selumetinib]	2.46	-3.34	0.359	-0.332	-3	-3.38	0.627							
CCN1C(=O)N(c2c(F)c(OC)cc(OC)c2F)Cc2cnc3[nH]c(CN4CCOCC4)cc3c21 [pemigatinib]	-2.65	17	14	17	-5.57	-3	30							
CNC(=O)c1ccc(-c2cnc3ncc(Cc4ccc5ncccc5c4)n3n2)cc1F [capmatinib]								2.61	-10	-3.34	-1.79	-4	-7	-2
FC(F)(F)c1ccc(CNc2ccc(Cc3c[nH]c4ncc(Cl)cc34)cn2)cn1 [pexidartinib]	7	4	-12	5.64	-1.68	4	12							
C[C@H](Nc1ncnc2nc[nH]c12)c1cc2cccc(Cl)c2c(=O)n1-c1ccccc1 [duvelisib]	0.053	6	-3.52	3.24	-1.84	8	-7							
Cn1cnc2c(F)c(Nc3ccc(Br)cc3F)c(C(=O)NOCCO)cc21 [binimetinib]	5	-8	0.731	0.0227	0.203	-3	-5.4							
Cc1nc(NC(=O)N2CCC[C@H]2C(N)=O)sc1-c1ccnc(C(C)(C)C(F)(F)F)c1 [alpelisib]	-8	2	-2.46	2	-1.24	-1	-3.8							
C=CC(=O)N1CCC([C@@H]2CCNc3c(C(N)=O)c(-c4ccc(Oc5ccccc5)cc4)nn32)CC1 [zanubrutinib]	-3	-1.26	13	37	-4	-0.0723	-2.7							

Now from value to compound, other results behind:

inhibition at 1 µM [1, 8] [%]	inhibition at 1 µM [2, 9] [%]	inhibition at 1 µM [3, 10] [%]	inhibition at 1 µM [4, 11] [%]	inhibition at 1 µM [5, 12] [%]	inhibition at 1 µM [6, 13] [%]	inhibition at 1 µM [7, 14] [%]	SMILES	inhibition at 1 µM [1] [%]	inhibition at 1 µM [2] [%]	inhibition at 1 µM [3] [%]	inhibition at 1 µM [4] [%]	inhibition at 1 µM [5] [%]	inhibition at 1 µM [6] [%]	inhibition at 1 µM [7] [%]
6	9	12	51	-7	-5.4	-0.264	COc1ccc(CN2C3CC2CN(c2ccc(-c4cc(OCC(C)(C)O)cn5ncc(C#N)c45)cn2)C3)cn1 [selpercatinib]							
0.894	3.44	8	2.55	-5.44	-3	-6	O=C(Nc1cnn2ccc(N3CCC[C@@H]3c3cc(F)ccc3F)nc12)N1CC[C@H](O)C1 [larotrectinib]							
101	-7.54	3	81	-1.86	7.44	5	CO[C@]1(C(=O)N[C@@H](C)c2ccc(-n3cc(F)cn3)nc2)CC[C@H](c2nc(C)cc(Nc3cc(C)[nH]n3)n2)CC1 [pralsetinib]							
2.72	-3.73	39	6	1.21	0.168	-1.5	Cc1cc(Nc2ncnc3ccc(NC4=NC(C)(C)CO4)cc23)ccc1Oc1ccn2ncnc2c1 [tucatinib]							

From PMC9516332 (Frontiers in Oncology, 2022)
